Measurements from patent US20090017139A1, “Iodine therapy dosing for treating medical conditions” (priority 2007, published 2009).

Tests used:
[1] = Example 5: daily feed consumption and weight during 2 months of daily dosing; format: in vivo, Sprague-Dawley rats; conditions: 2 months daily dosing, .06 to 2 mg I2/kg/day
Description: (§1) A total of 24 nulliparous and nonpregnant female Sprague-Dawley rats were received from Charles River Laboratories, Kingston, N.Y. The animals were 10 weeks of age and were examined for signs of disease or injury upon receipt. The animals were housed in stainless steel cages and fed LabDiet™ Certified Rodent Chow 5002 (PMI Feeds, Inc., a subsidiary of Purina Mills, Inc.) ad libitum and were provided fresh filtered tap water ad libitum. Environmental controls were set to maintain a temperature of 18 to 26° C. and a relative humidity of 30 to 70%. A 12-hour light/dark cycle was employed and the room underwent a minimum of ten fresh air changes/hour.
(§2) The animals were allowed to acclimate to laboratory conditions for 2 weeks. No abnormal findings excluding animals from study were noted. The animals were released from conditioning following an examination. Each animal was identified with a unique number that was indicated by ear punch. Cage labels, color-coded by group, identified each cage. The animals were maintained at laboratory conditions for an additional 2 weeks and then randomized into treatment groups by weight.
Tablets of IoGen, a registered trademark of Symbollon Pharmaceuticals Inc. of Framingham Mass. USA were dissolved in distilled water. […]

[2] = system: euthyroid mastalgia patients; experiment: Example 1: multi-center, randomized, double-blind, placebo-controlled 6 month mastalgia study; format: in vivo, human; conditions: for change in the Lewin Overall pain scale: 6.0 mg/d
Description: A multi-center, randomized, double-blind, placebo-controlled study dosed patients for 6 months with 0.0, 1.5, 3.0 and 6.0 mg I2 daily. Healthy euthyroid mastalgia patients between the ages of 18 and 50 who were unresponsive to conservative treatments like OTC analgesics were eligible for the study. Subjects needed to identify a history of at least six months of moderate or severe breast pain and document at least 6 days per cycle of moderate or severe pain in a daily dairy (FIG. 1 below).

estrogen receptor = experiment: Example 5: immunocytochemical detection of estrogen receptor in vaginal smears after 2 months of daily I2; format: in vivo, Sprague-Dawley rats; conditions: for Immunocytochemical Detection of Estrogen Receptor, Scores (mean ± SD), End: after 2 months daily dosing; for Immunocytochemical Detection of Estrogen Receptor, Scores (mean ± SD), End / Immunocytochemical Detection of Estrogen Receptor, Scores (mean ± SD), Baseline: scale +1 to +3, dissolved IoGen tablets; for Immunocytochemical Detection of Estrogen Receptor, Scores (mean ± SD), Baseline: before dosing
Description: as §1, §2
Tablets of IoGen, a registered trademark of Symbollon Pharmaceuticals Inc. of Framingham Mass. USA were dissolved in distilled water. IoGen tablets are compositions of iodide and iodate in a pharmaceutically acceptable carrier which will form molecular iodine “I2” once in contact with the gastric fluid in the stomach via a diffusion controlled oxidation reduction reaction as taught in U.S. Pat. No. 5,885,592 the disclosure of which is incorporated herein by reference. For this example the IoGen tablets weighted 400 mg and contained the equivalent of 6 mg of I2 in the form of iodide and iodate. The dissolved IoGen tables were used to provide defined daily doses of I2 to rats according to Table 1 below.
After randomization vaginal smears were taken from rats using a cotton swab; the swab was inserted into the vagina and rotated 360° in a clockwise direction, then the swab was smeared onto a glass slide and the smear was fixed in 3.7% formaldehyde with phosphate buffered saline (PBS) for 15 minutes. The slides were washed in PBS for 5 minutes and subsequently immersed in cold methanol and acetone (both at −10° C.) for 3 minutes. After a final rinse in cold PBS for 5 minutes the slides were stored at −20° C. in a solution of PBS-glycerol.
Rats were then dosed daily for the next 2 months according to the schedule in Table 1. […] After 2 months of daily dosing vaginal swabs were taken again and slides were prepared as on day 1 of the dosing regimen.
Immunocytochemical (IC) detection of estrogen receptor (hereafter “ER”) status was accomplished using mouse monoclonal antibody 6F11 from Vector Laboratories (Burlingame, Calif.). A gentle stream of 10 mM citrate buffer (pH 6.0) was passed over each slide for 45 minutes and then a 1/25 dilution of the antibody was incubated with slides at room temperature for 30 minutes. Slides were washed and the Vectastain ABC Kit for Mouse IgG (Vector Laboratories; Burlingame, Calif.) was used to visualize ER. The chromophone 3,3′ diaminobenzidine and peroxidase were used to stain areas of the slides that contained ER. The intensity of staining was scored semi quantitatively on a scale of +1 to +3. Each dosing group contained 6 animals.

Compound: II [I2, molecular iodine]
- daily feed consumption or weight, placebo versus treated groups [1]: no statistically significant differences
- change in the Lewin Overall pain scale ([2]; month 3): 45.4%
- change in the Lewin Overall pain scale ([2]; month 6): 45.0%
- magnitude of pain reduction versus dose ([2]; 1.5, 3.0, 6.0 mg daily, month 3 and month 6 (p<0.01)): increased with dose
- difference among dosing groups in adverse events or thyroid related clinical chemistry tests ([2]; first 3 months of treatment): did not find any difference
- Immunocytochemical Detection of Estrogen Receptor, Scores (mean ± SD), End (estrogen receptor; Group 2, .06 mg I2/kg/day): 1.167 ± 0.752
- Immunocytochemical Detection of Estrogen Receptor, Scores (mean ± SD), Baseline (estrogen receptor; Group 2, .06 mg I2/kg/day): 2.000 ± 0.632
- Immunocytochemical Detection of Estrogen Receptor, Scores (mean ± SD), End (estrogen receptor; Group 3, 0.2 mg I2/kg/day): 1.167 ± 0.408
- Immunocytochemical Detection of Estrogen Receptor, Scores (mean ± SD), Baseline (estrogen receptor; Group 3, 0.2 mg I2/kg/day): 2.167 ± 0.753
- Immunocytochemical Detection of Estrogen Receptor, Scores (mean ± SD), End (estrogen receptor; Group 4, 2 mg I2/kg/day): 0.833 ± 0.408
- Immunocytochemical Detection of Estrogen Receptor, Scores (mean ± SD), Baseline (estrogen receptor; Group 4, 2 mg I2/kg/day): 2.333 ± 0.516
- effect of daily treatment on ER in the endometrium (estrogen receptor; trend across the 3 dosing groups p<0.001): down regulation of ER
- change from baseline to end in ER score, placebo versus all rats that received I2 (estrogen receptor; unpaired t-test, p=0.015): statistically significant difference
